From patent US12077503B2, “Substituted cyclic amides and their use as herbicides” (FMC CORPORATION, priority 2015, dated 2024)

Columns and labels:
Type in all cases: in vivo
[1] = system: barnyardgrass (Echinochloa crus-galli); test: Test G Pre-Emergence Protocol; settings: Echinochloa crus-galli, pre-emergence, 312 h, evaluated after 13 days; for pest or weed control at 15.625 g/ha: 15.625 g ai/ha, read-out: Barnyard grass damage rating (100=total damage to plant; 0=no damage to plant); for pest or weed control at 62.5 g/ha: 62.5 g ai/ha, 100=total damage to plant, 0=no damage to plant, read-out: plant damage rating, Barnyardgrass; for pest or weed control at 250 g/ha: 250 g ai/ha, read-out: Barnyardgrass damage rating (100=total damage to plant; 0=no damage to plant)
Summary of the method: (§1)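 Pre-emergence spray, 15.625/62.5/250 g/ha, vehicle acetone:water 50:50 + 0.5% Tween 20, applied 1 d after sowing. Glasshouse 24/16° C, 14 h light, 65% RH, watered twice daily. Visual damage rating at 13 d, 0–100 scale.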

corn (Zea mays) [2] = test: Test G Pre-Emergence Protocol; settings: Zea mays, pre-emergence, 312 h, evaluated after 13 days; for plant injury at 15.625 g/ha: 15.625 g ai/ha; for plant injury at 15.625 g/ha / plant injury at 250 g/ha: read-out: Corn damage rating (100=total damage to plant; 0=no damage to plant); for plant injury at 62.5 g/ha: 62.5 g ai/ha, 100=total damage to plant, 0=no damage to plant, read-out: plant damage rating, Corn; for plant injury at 250 g/ha: 250 g ai/ha
Summary of the method: as §1

[3] = system: giant foxtail (Setaria faberi); test: Test G Pre-Emergence Protocol; settings: Setaria faberi, pre-emergence, 312 h, evaluated after 13 days; for pest or weed control at 15.625 g/ha: 15.625 g ai/ha; for pest or weed control at 15.625 g/ha / pest or weed control at 250 g/ha: read-out: Foxtail, Giant damage rating (100=total damage to plant; 0=no damage to plant); for pest or weed control at 62.5 g/ha: 62.5 g ai/ha, 100=total damage to plant, 0=no damage to plant, read-out: plant damage rating, Foxtail, Giant; for pest or weed control at 250 g/ha: 250 g ai/ha
Summary of the method: as §1

[4] = system: ivy-leaved morning glory (Ipomoea hederacea); test: Test G Pre-Emergence Protocol; settings: Ipomoea, pre-emergence, 312 h, evaluated after 13 days; for pest or weed control at 15.625 g/ha: 15.625 g ai/ha, read-out: Morning-glory, Ivy-leaved damage rating (100=total damage to plant; 0=no damage to plant); for pest or weed control at 62.5 g/ha: 62.5 g ai/ha, 100=total damage to plant, 0=no damage to plant, read-out: plant damage rating, Morningglory, Ivy-leaved; for pest or weed control at 250 g/ha: 250 g ai/ha, read-out: Morningglory, Ivy-leaved damage rating (100=total damage to plant; 0=no damage to plant)
Summary of the method: as §1

[5] = system: redroot pigweed (Amaranthus retroflexus); test: Test G Pre-Emergence Protocol; settings: Amaranthus retroflexus, pre-emergence, 312 h, evaluated after 13 days; for pest or weed control at 15.625 g/ha: 15.625 g ai/ha; for pest or weed control at 15.625 g/ha / pest or weed control at 250 g/ha: read-out: Pigweed, Redroot damage rating (100=total damage to plant; 0=no damage to plant); for pest or weed control at 62.5 g/ha: 62.5 g ai/ha, 100=total damage to plant, 0=no damage to plant, read-out: plant damage rating, Pigweed, Redroot; for pest or weed control at 250 g/ha: 250 g ai/ha
Summary of the method: as §1

[6] = system: velvetleaf (Abutilon theophrasti); test: Test G Pre-Emergence Protocol; settings: Abutilon theophrasti, pre-emergence, 312 h, evaluated after 13 days; for pest or weed control at 15.625 g/ha: 15.625 g ai/ha; for pest or weed control at 15.625 g/ha / pest or weed control at 250 g/ha: read-out: Velvetleaf damage rating (100=total damage to plant; 0=no damage to plant); for pest or weed control at 62.5 g/ha: 62.5 g ai/ha, 100=total damage to plant, 0=no damage to plant, read-out: plant damage rating, Velvetleaf; for pest or weed control at 250 g/ha: 250 g ai/ha
Summary of the method: as §1

[7] = system: barnyardgrass (Echinochloa crus-galli); test: Test G Post-Emergence Protocol; settings: Echinochloa crus-galli, post-emergence, 312 h; for pest or weed control at 15.625 g/ha: 15.625 g ai/ha, evaluated after 13 days (100=total damage to plant; 0=no damage to plant), read-out: Barnyardgrass damage rating; for pest or weed control at 62.5 g/ha: 62.5 g ai/ha, read-out: Barnyardgrass damage rating (100=total damage to plant; 0=no damage to plant); for pest or weed control at 62.5 g/ha / pest or weed control at 250 g/ha: evaluated after 13 days; for pest or weed control at 250 g/ha: 250 g ai/ha, read-out: damage to plant, Barnyardgrass (100=total damage to plant; 0=no damage to plant)
Summary of the method: (§2)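 Scores run 0 (no damage) to 100 (total damage) and were taken 13 days after spraying. Plants had been raised in pots for 8 days under glasshouse control (24/16 °C, 14 h photoperiod, 65% humidity) and then treated at 15.625, 62.5 or 250 g/ha.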

corn (Zea mays) [8] = test: Test G Post-Emergence Protocol; settings: Zea mays, post-emergence, 312 h; for plant injury at 15.625 g/ha: 15.625 g ai/ha, evaluated after 13 days (100=total damage to plant; 0=no damage to plant), read-out: Corn damage rating; for plant injury at 62.5 g/ha: 62.5 g ai/ha, read-out: Corn damage rating (100=total damage to plant; 0=no damage to plant); for plant injury at 62.5 g/ha / plant injury at 250 g/ha: evaluated after 13 days; for plant injury at 250 g/ha: 250 g ai/ha, read-out: damage to plant, Corn (100=total damage to plant; 0=no damage to plant)
Summary of the method: as §2

[9] = system: giant foxtail (Setaria faberi); test: Test G Post-Emergence Protocol; settings: Setaria faberi, post-emergence, 312 h; for pest or weed control at 15.625 g/ha: 15.625 g ai/ha, evaluated after 13 days (100=total damage to plant; 0=no damage to plant), read-out: Foxtail, Giant damage rating; for pest or weed control at 62.5 g/ha: 62.5 g ai/ha, read-out: Foxtail, Giant damage rating (100=total damage to plant; 0=no damage to plant); for pest or weed control at 62.5 g/ha / pest or weed control at 250 g/ha: evaluated after 13 days; for pest or weed control at 250 g/ha: 250 g ai/ha, read-out: damage to plant, Foxtail, Giant (100=total damage to plant; 0=no damage to plant)
Summary of the method: as §2

[10] = system: ivy-leaved morning glory (Ipomoea hederacea); test: Test G Post-Emergence Protocol; settings: Ipomoea, post-emergence, 312 h; for pest or weed control at 15.625 g/ha: 15.625 g ai/ha, evaluated after 13 days (100=total damage to plant; 0=no damage to plant), read-out: Morningglory, Ivy-leaved damage rating; for pest or weed control at 62.5 g/ha: 62.5 g ai/ha, read-out: Morningglory, Ivy-leaved damage rating (100=total damage to plant; 0=no damage to plant); for pest or weed control at 62.5 g/ha / pest or weed control at 250 g/ha: evaluated after 13 days; for pest or weed control at 250 g/ha: 250 g ai/ha, read-out: damage to plant, Morningglory, Ivy-leaved (100=total damage to plant; 0=no damage to plant)
Summary of the method: as §2

[11] = system: redroot pigweed (Amaranthus retroflexus); test: Test G Post-Emergence Protocol; settings: Amaranthus retroflexus, post-emergence, 312 h; for pest or weed control at 15.625 g/ha: 15.625 g ai/ha, evaluated after 13 days (100=total damage to plant; 0=no damage to plant), read-out: Pigweed, Redroot damage rating; for pest or weed control at 62.5 g/ha: 62.5 g ai/ha, read-out: Pigweed, Redroot damage rating (100=total damage to plant; 0=no damage to plant); for pest or weed control at 62.5 g/ha / pest or weed control at 250 g/ha: evaluated after 13 days; for pest or weed control at 250 g/ha: 250 g ai/ha, read-out: damage to plant, Pigweed, Redroot (100=total damage to plant; 0=no damage to plant)
Summary of the method: as §2

[12] = system: velvetleaf (Abutilon theophrasti); test: Test G Post-Emergence Protocol; settings: Abutilon theophrasti, post-emergence, 312 h; for pest or weed control at 15.625 g/ha: 15.625 g ai/ha, evaluated after 13 days (100=total damage to plant; 0=no damage to plant), read-out: Velvetleaf damage rating; for pest or weed control at 62.5 g/ha: 62.5 g ai/ha, read-out: Velvetleaf damage rating (100=total damage to plant; 0=no damage to plant); for pest or weed control at 62.5 g/ha / pest or weed control at 250 g/ha: evaluated after 13 days; for pest or weed control at 250 g/ha: 250 g ai/ha, read-out: damage to plant, Velvetleaf (100=total damage to plant; 0=no damage to plant)
Summary of the method: as §2

| SMILES | pest or weed control at 15.625 g/ha [1] | pest or weed control at 62.5 g/ha [1] | pest or weed control at 250 g/ha [1] | plant injury at 15.625 g/ha (corn (Zea mays) [2]) | plant injury at 62.5 g/ha (corn (Zea mays) [2]) | plant injury at 250 g/ha (corn (Zea mays) [2]) | pest or weed control at 15.625 g/ha [3] | pest or weed control at 62.5 g/ha [3] | pest or weed control at 250 g/ha [3] | pest or weed control at 15.625 g/ha [4] | pest or weed control at 62.5 g/ha [4] | pest or weed control at 250 g/ha [4] | pest or weed control at 15.625 g/ha [5] | pest or weed control at 62.5 g/ha [5] | pest or weed control at 250 g/ha [5] | pest or weed control at 15.625 g/ha [6] | pest or weed control at 62.5 g/ha [6] | pest or weed control at 250 g/ha [6] | pest or weed control at 15.625 g/ha [7] | pest or weed control at 62.5 g/ha [7] | further results |
| --- | --- | --- | --- | --- | --- | --- | --- | --- | --- | --- | --- | --- | --- | --- | --- | --- | --- | --- | --- | --- | --- |
| COC(=O)c1nccc(NC(=O)[C@@H]2C(=O)N(C)C[C@H]2c2ccc(C(F)(F)F)cc2)n1 (racemic) [Compound 1537] | 0% | 0% | 0% | 0% | 0% | 0% | 0% | 0% | 0% | 0% | 0% | 0% | 0% | 0% | 0% | 0% | 0% | 0% | 0% | 0% | pest or weed control at 250 g/ha [7]: 0%; plant injury at 15.625 g/ha (corn (Zea mays) [8]): 0%; plant injury at 62.5 g/ha (corn (Zea mays) [8]): 0%; plant injury at 250 g/ha (corn (Zea mays) [8]): 0%; pest or weed control at 15.625 g/ha [9]: 0%; pest or weed control at 62.5 g/ha [9]: 0%; pest or weed control at 250 g/ha [9]: 0%; pest or weed control at 15.625 g/ha [10]: 0%; pest or weed control at 62.5 g/ha [10]: 0%; pest or weed control at 250 g/ha [10]: 0%; pest or weed control at 15.625 g/ha [11]: 0%; pest or weed control at 62.5 g/ha [11]: 0%; pest or weed control at 250 g/ha [11]: 0%; pest or weed control at 15.625 g/ha [12]: 0%; pest or weed control at 62.5 g/ha [12]: 0%; pest or weed control at 250 g/ha [12]: 0% |
| CN1C[C@H](c2ccc(C(C)(C)C)cc2)[C@@H](C(=O)Nc2ccccc2F)C1=O (racemic) [Compound 1409] | 0% | 0% | 10% | 0% | 0% | 0% | 0% | 0% | 40% | 0% | 0% | 0% | 0% | 0% | 0% | 0% | 0% | 0% | 0% | 10% | pest or weed control at 250 g/ha [7]: 30%; plant injury at 15.625 g/ha (corn (Zea mays) [8]): 0%; plant injury at 62.5 g/ha (corn (Zea mays) [8]): 0%; plant injury at 250 g/ha (corn (Zea mays) [8]): 10%; pest or weed control at 15.625 g/ha [9]: 0%; pest or weed control at 62.5 g/ha [9]: 0%; pest or weed control at 250 g/ha [9]: 40%; pest or weed control at 15.625 g/ha [10]: 0%; pest or weed control at 62.5 g/ha [10]: 0%; pest or weed control at 250 g/ha [10]: 0%; pest or weed control at 15.625 g/ha [11]: 0%; pest or weed control at 62.5 g/ha [11]: 0%; pest or weed control at 250 g/ha [11]: 10%; pest or weed control at 15.625 g/ha [12]: 0%; pest or weed control at 62.5 g/ha [12]: 0%; pest or weed control at 250 g/ha [12]: 10% |
| Cc1c(Cl)ncnc1NC(=O)[C@@H]1C(=O)N(C)C[C@H]1c1ccc(C(F)(F)F)cc1 (racemic) [Compound 1581] | 0% | 0% | 0% | 0% | 0% | 0% | 0% | 0% | 0% | 0% | 0% | 0% | 0% | 0% | 0% | 0% | 0% | 0% | 0% | 0% | pest or weed control at 250 g/ha [7]: 10%; plant injury at 15.625 g/ha (corn (Zea mays) [8]): 0%; plant injury at 62.5 g/ha (corn (Zea mays) [8]): 0%; plant injury at 250 g/ha (corn (Zea mays) [8]): 0%; pest or weed control at 15.625 g/ha [9]: 0%; pest or weed control at 62.5 g/ha [9]: 0%; pest or weed control at 250 g/ha [9]: 0%; pest or weed control at 15.625 g/ha [10]: 0%; pest or weed control at 62.5 g/ha [10]: 0%; pest or weed control at 250 g/ha [10]: 0%; pest or weed control at 15.625 g/ha [11]: 0%; pest or weed control at 62.5 g/ha [11]: 0%; pest or weed control at 250 g/ha [11]: 0%; pest or weed control at 15.625 g/ha [12]: 0%; pest or weed control at 62.5 g/ha [12]: 0%; pest or weed control at 250 g/ha [12]: 0% |
